What follows are compounds tested on Parastagonospora nodorum (assay: Parastagonospora nodorum (PARANO) microtiter growth inhibition assay, OD600). Conditions: 18° C., 15-18 days, read-out: control (growth inhibition by OD600).
Assay type: cell-based
Description: Potato dextrose (PDB) liquid medium (Difco) containing a […] (10^5 spores/ml) spore suspension was prepared. For the inhibition assay, each test compound was solved in dimethyl sulfoxide. 100 μl of the test media-solution was added to a 96-well microtiter plate, consequently, the same volume (100 μl) of spore suspension was added to the well making the final test concentrations and the plate was incubated at 18° C. for 15-18 days. The growth inhibition was evaluated by measuring the OD600. Percent inhibition was calculated with the below formula: I=([…])*100 Where T=treatment, C═control, and B=blank
For `COc1ccnc(S(C)(=O)=NC(=O)c2ccn(-c3ccc(-c4noc(C(F)(F)F)n4)cc3)c2)c1` (stereo not shown) [Compound 29, N-((4-methoxypyridin-2-yl)(methyl)(oxo)-λ^6-sulfanylidene)-1-(4-(5-(trifluoromethyl)-1,2,4-oxadiazol-3-yl)phenyl)-1H-pyrrole-3-carboxamide], the inhibition at 300 ppm was at least 70%. `FC(F)(F)c1nc(-c2ccc(-n3cnc(CSc4ccccc4)c3)cc2)no1` [Compound 43, 3-(4-(4-((phenylthio)methyl)-1H-imidazol-1-yl)phenyl)-5-(trifluoromethyl)-1,2,4-oxadiazole] was tested, and the inhibition at 300 ppm was at least 70%. In the case of `O=C(Cc1cn(-c2ccc(-c3noc(C(F)(F)F)n3)cc2)cn1)NCc1ccc(F)cc1` [Compound 6, N-(4-fluorobenzyl)-2-(1-(4-(5-(trifluoromethyl)-1,2,4-oxadiazol-3-yl)phenyl)-1H-imidazol-4-yl)acetamide], the inhibition at 300 ppm is reported as at least 70%. In the case of `Cc1cccc(S(C)(=O)=NC(=O)c2ccn(-c3ccc(-c4noc(C(F)(F)F)n4)cc3)c2)c1` (stereo not shown) [Compound 24, N-(methyl(oxo)(m-tolyl)-λ^6-sulfanylidene)-1-(4-(5-(trifluoromethyl)-1,2,4-oxadiazol-3-yl)phenyl)-1H-pyrrole-3-carboxamide], the inhibition at 300 ppm is reported as at least 70%.

These compounds were tested on Phakopsora pachyrhizi (assay: Phakopsora pachyrhizi test in soybean, greenhouse, preventive activity). Conditions: 24 h, spray one day before inoculation, soybean plants, read-out: control (efficacy, disease severity rating versus untreated control).
Assay type: in vivo, Phakopsora pachyrhizi on soybean plants
Description: Compounds were dissolved in 2% dimethyl sulfoxide/acetone and then mixed with water containing emulsifier to the calibrated spray volume of 50 mL. Each spray solution was poured into a spray bottle for further application. To test the preventive activity of the compound, healthy young Soybean plants, raised in the greenhouse, were sprayed with the active compound preparation at the stated application rate inside the spray cabinets using hollow cone nozzles. One day aftertreatment, the plants were inoculated with a conidial suspension containing 2×10^5Phakopsora […]. The inoculated plants were then kept in a greenhouse chamber at 22-24° C. temperature and 80-90% relative humidity for disease expression. A visual assessment of the compound's performance was carried out by rating the disease severity (0-100% scale) on treated plants 3, 7, 10 and 15 days after application. Efficacy (% control) of the compound was calculated by comparing the disease rating in the treatment with the one of the untreated control. The sprayed plants were also assessed for plant damage by recording symptoms like necrosis, chlorosis and stunting.
With `COc1ccnc(S(C)(=O)=NC(=O)c2ccn(-c3ccc(-c4noc(C(F)(F)F)n4)cc3)c2)c1` (stereo not shown) [Compound 29, N-((4-methoxypyridin-2-yl)(methyl)(oxo)-λ^6-sulfanylidene)-1-(4-(5-(trifluoromethyl)-1,2,4-oxadiazol-3-yl)phenyl)-1H-pyrrole-3-carboxamide] the pest or weed control at 500 ppm was at most 70%. `Cc1ccc(NC(=O)Cc2cn(-c3ccc(-c4noc(C(F)(F)F)n4)cc3)cn2)cc1` [Compound 8, N-(p-tolyl)-2-(1-(4-(5-(trifluoromethyl)-1,2,4-oxadiazol-3-yl)phenyl)-1H-imidazol-4-yl)acetamide] gave a pest or weed control at 500 ppm of at most 70%. With `O=C(Cc1cn(-c2ccc(-c3noc(C(F)(F)F)n3)cc2)cn1)NCc1ccc(F)cc1` [Compound 6, N-(4-fluorobenzyl)-2-(1-(4-(5-(trifluoromethyl)-1,2,4-oxadiazol-3-yl)phenyl)-1H-imidazol-4-yl)acetamide] the pest or weed control at 500 ppm was at most 70%. `O=C(Cc1cn(-c2ccc(-c3noc(C(F)(F)F)n3)cc2)cn1)NCc1ccccc1F` [Compound 7, N-(2-fluorobenzyl)-2-(1-(4-(5-(trifluoromethyl)-1,2,4-oxadiazol-3-yl)phenyl)-1H-imidazol-4-yl)acetamide] gave a pest or weed control at 500 ppm of at most 70%. `O=C(Cc1cn(-c2ccc(-c3noc(C(F)(F)F)n3)cc2)cn1)Nc1ccccc1Br` [Compound 14, N-(2-bromophenyl)-2-(1-(4-(5-(trifluoromethyl)-1,2,4-oxadiazol-3-yl)phenyl)-1H-imidazol-4-yl)acetamide] gave a pest or weed control at 500 ppm of at most 70%. Work on `CCOC(=O)Cc1cn(-c2ccc(-c3noc(C(F)(F)F)n3)cc2)cn1` [Compound 1, Ethyl 2-(1-(4-(5-(trifluoromethyl)-1,2,4-oxadiazol-3-yl)phenyl)-1H-imidazol-4-yl)acetate] yielded a pest or weed control at 500 ppm of at most 70%. With `O=C(Cc1cn(-c2ccc(-c3noc(C(F)(F)F)n3)cc2)cn1)Nc1ccc(Cl)cc1` [Compound 9, N-(4-chlorophenyl)-2-(1-(4-(5-(trifluoromethyl)-1,2,4-oxadiazol-3-yl)phenyl)-1H-imidazol-4-yl)acetamide] the pest or weed control at 500 ppm was at most 70%. `COc1ccccc1S(C)(=O)=NC(=O)c1cnn(-c2ccc(-c3noc(C(F)(F)F)n3)cc2)c1` (stereo not shown) [Compound 20, N-((2-methoxyphenyl)(methyl)(oxo)-λ^6-sulfaneylidene)-1-(4-(5-(trifluoromethyl)-1,2,4-oxadiazol-3-yl)phenyl)-1H-pyrazole-4-carboxamide] was tested, and the pest or weed control at 500 ppm was at most 70%. In the case of `CS(=O)(=NC(=O)c1cnn(-c2ccc(-c3noc(C(F)(F)F)n3)cc2)c1)c1cccc(F)c1` (stereo not shown) [Compound 23, N-((3-fluorophenyl)(methyl)(oxo)-λ^6-sulfanylidene)-1-(4-(5-(trifluoromethyl)-1,2,4-oxadiazol-3-yl)phenyl)-1H-pyrazole-4-carboxamide], the pest or weed control at 500 ppm is reported as at most 70%. In the case of `O=C(Cc1cn(-c2ccc(-c3noc(C(F)(F)F)n3)cc2)cn1)NCc1ccccc1` [Compound 4, N-benzyl-2-(1-(4-(5-(trifluoromethyl)-1,2,4-oxadiazol-3-yl)phenyl)-1H-imidazol-4-yl)acetamide], the pest or weed control at 500 ppm is reported as at most 70%. Work on `COc1cccc(NC(=O)Cc2cn(-c3ccc(-c4noc(C(F)(F)F)n4)cc3)cn2)c1` [Compound 12, N-(3-methoxyphenyl)-2-(1-(4-(5-(trifluoromethyl)-1,2,4-oxadiazol-3-yl)phenyl)-1H-imidazol-4-yl)acetamide] yielded a pest or weed control at 500 ppm of at most 70%. For `COc1ccc(NC(=O)Cc2cn(-c3ccc(-c4noc(C(F)(F)F)n4)cc3)cn2)cc1` [Compound 2, N-(4-methoxyphenyl)-2-(1-(4-(5-(trifluoromethyl)-1,2,4-oxadiazol-3-yl)phenyl)-1H-imidazol-4-yl)acetamide], the pest or weed control at 500 ppm was at most 70%. For `CS(=O)(=NC(=O)c1cnn(-c2ccc(-c3noc(C(F)(F)F)n3)cc2)c1)c1ccccc1` (stereo not shown) [Compound 22, N-(methyl(oxo)(phenyl)-λ^6-sulfaneylidene)-1-(4-(5-(trifluoromethyl)-1,2,4-oxadiazol-3-yl)phenyl)-1H-pyrazole-4-carboxamide], the pest or weed control at 500 ppm was at most 70%. In the case of `Cc1ccccc1S(C)(=O)=NC(=O)c1cnn(-c2ccc(-c3noc(C(F)(F)F)n3)cc2)c1` (stereo not shown) [Compound 19, N-(methyl(oxo)(o-tolyl)-λ^6-sulfaneylidene)-1-(4-(5-(trifluoromethyl)-1,2,4-oxadiazol-3-yl)phenyl)-1H-pyrazole-4-carboxamide], the pest or weed control at 500 ppm is reported as at most 70%. `COc1ccc(CNC(=O)Cc2cn(-c3ccc(-c4noc(C(F)(F)F)n4)cc3)cn2)cc1` [Compound 5, N-(4-methoxybenzyl)-2-(1-(4-(5-(trifluoromethyl)-1,2,4-oxadiazol-3-yl)phenyl)-1H-imidazol-4-yl)acetamide] was tested, and the pest or weed control at 500 ppm was at most 70%. `CS(=O)(=NC(=O)c1ccn(-c2ccc(-c3noc(C(F)(F)F)n3)cc2)c1)c1ccc(F)cc1` (stereo not shown) [Compound 27, N-((4-fluorophenyl)(methyl)(oxo)-λ^6-sulfanylidene)-1-(4-(5-(trifluoromethyl)-1,2,4-oxadiazol-3-yl)phenyl)-1H-pyrrole-3-carboxamide] was tested, and the pest or weed control at 500 ppm was at most 70%. Work on `COCCS(=O)(=NC(=O)c1ccn(-c2ccc(-c3noc(C(F)(F)F)n3)cc2)c1)c1ccccn1` (stereo not shown) [Compound 25, N-((2-methoxyethyl)(oxo)(pyridin-2-yl)-λ^6-sulfanylidene)-1-(4-(5-(trifluoromethyl)-1,2,4-oxadiazol-3-yl)phenyl)-1H-pyrrole-3-carboxamide] yielded a pest or weed control at 500 ppm of at most 70%. `O=C(Cc1cn(-c2ccc(-c3noc(C(F)(F)F)n3)cc2)cn1)Nc1cccc(F)c1` [Compound 10, N-(3-fluorophenyl)-2-(1-(4-(5-(trifluoromethyl)-1,2,4-oxadiazol-3-yl)phenyl)-1H-imidazol-4-yl)acetamide] was tested, and the pest or weed control at 500 ppm was at most 70%. `COc1ccc(S(C)(=O)=NC(=O)c2cnn(-c3ccc(-c4noc(C(F)(F)F)n4)cc3)c2)cc1` (stereo not shown) [Compound 21, N-((4-methoxyphenyl)(methyl)(oxo)-λ^6-sulfaneylidene)-1-(4-(5-(trifluoromethyl)-1,2,4-oxadiazol-3-yl)phenyl)-1H-pyrazole-4-carboxamide] gave a pest or weed control at 500 ppm of at most 70%. With `O=C(Cc1cn(-c2ccc(-c3noc(C(F)(F)F)n3)cc2)cn1)N1CCCCC1` [Compound 11, 1-(piperidin-1-yl)-2-(1-(4-(5-(trifluoromethyl)-1,2,4-oxadiazol-3-yl)phenyl)-1H-imidazol-4-yl)ethan-1-one] the pest or weed control at 500 ppm was at most 70%. `O=C(Cc1cn(-c2ccc(-c3noc(C(F)(F)F)n3)cc2)cn1)Nc1cccnc1` [Compound 13, N-(pyridin-3-yl)-2-(1-(4-(5-(trifluoromethyl)-1,2,4-oxadiazol-3-yl)phenyl)-1H-imidazol-4-yl)acetamide] was tested, and the pest or weed control at 500 ppm was at most 70%.
